In patent US8513277B2, “Pyrrolo[3,2-C] pyridine derivatives and processes for the preparation thereof” (Yuhan Corporation, priority 2004, dated 2013):
Counter-ions that a name gives are not always drawn.

Experiments:
[1] = biological target: T1, H+/K+-ATPase (hog gastric vesicle) (Sus scrofa, UniProt P19156); test: Inhibitory effects on proton pump (H+/K+-ATPase) activity; format: biochemical; settings: K+ stimulated H+/K+-ATPase activity, hog gastric vesicles, Pi measured at 620 nm
T1 construct: used as an enzyme source of the in vitro enzyme reaction assay of proton pump; from tissue; host or cells: hog gastric fundic mucosa, membrane vesicles (sucrose/Ficoll gradient), lyophilized
Procedure: The hog fundic regions containing parietal and peptic cells were scraped with slide-glass. The collected cells were suspended in 10 ml of 0.25M sucrose buffer and homogenized using a tight-fitting Teflon-glass homogenizer. The homogenate was centrifuged for 35 min at 8,000 rpm and the pellet was discarded. The supernatant was further centrifuged for 75 min at 25,000 rpm. The resulting pellets were re-suspended in the sucrose buffer (10 ml), and then the suspension was laid onto discontinuous density gradients consisting of 0.25M sucrose buffer and isolation medium containing 9% Ficoll (w/w). After being centrifuged for 3 hours and 15 minutes at 100,000×g, the material at the interface of sucrose buffer and Ficoll solution was collected and then centrifuged for 40 minutes at 100,000×g. The resulting pellets were re-suspended in 1 ml of 5 mM […] buffer (pH 6.1). This material was lyophilized and stored at −70° C. and used as an enzyme source of the in vitro enzyme reaction assay of proton pump. The inhibitory effects of the compounds of the present invention against proton pump activity were evaluated in 96-well plate. In this assay, the K^+ specific H^+/K^+-ATPase activity was calculated based on the difference between the activity of H^+/K^+-ATPase activity with K^+ and without K^+ ion. In 96-well plate, 1% dimethylsulfoxide (DMSO) in buffer was added to negative and positive control groups and the diluted compounds of the present invention in buffer were added to test group. All assays were performed in 100 μl reaction volume at room temperature, and the hog gastric vesicle was kept in ice before use. […] Then lyophilized vesicle in 5 mM Pipes/Tris buffer (pH 6.1) was pre-incubated in the presence of various concentrations of test compounds. After a 5 minute incubation, negative and positive buffers were respectively added to the previous reaction mixture. As the substrate, ATP was added to the reaction buffer, and incubated for 30 minutes at 37° C. Enzymatic activity was stopped by the addition of colorimetric reagent (2× malachite green, 1× ammonium molybdate, 1× polyvinyl alcohol, 2× H2O) and the amount of mono phosphate (Pi) in the reaction was measured at 620 nm using the micro plate reader (Genios Pro, TECAN). The difference between the Pi production with K^+ and without K^+ is taken as K^+ stimulated H^+/K^+-ATPase activity. The IC50s of test compounds were calculated from each % inhibition value of compounds using the method of Litchfield-Wilcoxon (J. Pharmacol. Exp. Ther. (1949) 96, 99).

[2] = system: basal gastric acid secretion in pylorus-ligated rats; test: Inhibitory effects on basal gastric acid secretion in pylorus-ligated rats (Shay's rat model); format: in vivo, rat (Sprague Dawley); settings: oral, one hour before pylorus ligation, total acid output 5 hours after ligation, male SD rats
Procedure: Inhibitory effects of the compounds of the present invention on basal gastric acid secretion were performed according to Shay's rat model (Shay, H., et al., 1945, gastroenterology, 5, 43-61). Male Sprague Dawley (SD) rats (200±10 g body weight) were divided into […] (n=5) and fasted for 24 hours with free access to water. Control group was orally administered with 0.5% methylcellulose alone and the other groups were orally administered with test compounds suspended in 0.5% methylcellulose solution at doses of 1, 3 and 10 mg/kg/5 ml one hour before pylorus ligation.
Under ether anesthesia, the abdomens of the rats were incised and then the pylorus was ligated. 5 hours after ligation, the animals were sacrificed, and the gastric contents were collected. The collected contents were centrifuged at 1,000×g for 10 minutes to obtain the gastric juice. Total acid output was measured by 0.01 N NaOH volume (ueq/ml) for automatic titration of the gastric juice to pH 7.0 and the ED50s of test compounds were calculated using the Litchfield-Wilcoxon method. % inhibitory activity was calculated from the following equation and the results are shown in Table 2.
% inhibitory activity of test compound=(total acid output of control group−total acid output of the group treated with test compounds)/total acid output of control group×100

hog gastric H+/K+-ATPase = biological target: T2, hog gastric H+/K+-ATPase (Sus scrofa, UniProt P19156); test: Reversible inhibition of hog gastric H+/K+-ATPase (washout method); format: biochemical
T2 construct: Gastric vesicles were prepared from hog fundic mucosa; from tissue; host or cells: hog fundic mucosa, gastric vesicles (microsomes), lyophilized
Procedure: Gastric vesicles were prepared from hog fundic mucosa using the method of Saccomani et al. (Saccomani G, Stewart H B, Shqw D, Lewin M and Sachs G, Characterization of gastric mucosal membranes. IX. Fraction and purification of K-ATPase-containing vesicles by zonal centrifugation and free-flow electrophoresis technique. Biochem. Biophy. Acta. (BBA)-Biomembranes 465, 311-330, 1977). This material was lyophilized and stored at −70° C. The protein content of gastric vesicles was determined by the Bradford method using bovine serum albumin as a standard (Bradford MM, A rapid and sensitive method for the quantitation of microgram quantities of protein utilizing the principle of protein-dye binding. Anal Biochem. 72, 248-254, 1976).
Activity of H^+/K^+-ATPase in hog microsome (lyophilized vesicle) was measured by the inorganic phosphate released from ATP using an one-step colorimetric detection method at the concentration at which the test compounds have 50% inhibition of the proton pump (Chan K M, Delfert D, and Junger K D, A direct colorimetric assay for Ca^2+-stimulated ATPase activity. Anal Biochem, 157, 375-380, 1986). […]

T1 sequence (P19156 2-1034 limits assumed): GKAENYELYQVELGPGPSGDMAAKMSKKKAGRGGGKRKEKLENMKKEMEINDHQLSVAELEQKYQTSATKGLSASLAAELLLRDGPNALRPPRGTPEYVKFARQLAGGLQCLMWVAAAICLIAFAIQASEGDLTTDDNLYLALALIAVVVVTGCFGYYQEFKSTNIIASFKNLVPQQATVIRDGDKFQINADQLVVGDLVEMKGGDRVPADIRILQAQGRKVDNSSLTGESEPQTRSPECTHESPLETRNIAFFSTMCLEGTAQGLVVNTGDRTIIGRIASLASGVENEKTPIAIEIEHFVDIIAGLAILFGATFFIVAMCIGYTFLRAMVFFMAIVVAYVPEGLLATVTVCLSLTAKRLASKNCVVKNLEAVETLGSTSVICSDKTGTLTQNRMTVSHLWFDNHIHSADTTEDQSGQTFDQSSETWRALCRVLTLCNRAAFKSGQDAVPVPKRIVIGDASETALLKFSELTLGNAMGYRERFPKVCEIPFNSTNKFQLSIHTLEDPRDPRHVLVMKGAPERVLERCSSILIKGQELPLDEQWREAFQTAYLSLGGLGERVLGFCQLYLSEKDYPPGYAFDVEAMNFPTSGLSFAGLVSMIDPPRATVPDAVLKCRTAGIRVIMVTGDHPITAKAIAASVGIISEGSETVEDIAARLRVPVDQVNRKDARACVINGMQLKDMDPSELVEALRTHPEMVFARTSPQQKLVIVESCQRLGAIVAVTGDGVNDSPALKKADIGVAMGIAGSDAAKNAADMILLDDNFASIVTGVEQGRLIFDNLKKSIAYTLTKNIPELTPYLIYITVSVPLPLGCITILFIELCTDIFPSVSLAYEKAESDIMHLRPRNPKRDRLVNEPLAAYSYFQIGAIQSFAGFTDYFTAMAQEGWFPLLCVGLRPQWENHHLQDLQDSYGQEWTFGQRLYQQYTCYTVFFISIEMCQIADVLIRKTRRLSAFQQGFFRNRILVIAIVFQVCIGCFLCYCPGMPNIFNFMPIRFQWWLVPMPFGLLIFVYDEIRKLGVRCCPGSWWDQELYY
T1 sequence (P18434 whole entry partner): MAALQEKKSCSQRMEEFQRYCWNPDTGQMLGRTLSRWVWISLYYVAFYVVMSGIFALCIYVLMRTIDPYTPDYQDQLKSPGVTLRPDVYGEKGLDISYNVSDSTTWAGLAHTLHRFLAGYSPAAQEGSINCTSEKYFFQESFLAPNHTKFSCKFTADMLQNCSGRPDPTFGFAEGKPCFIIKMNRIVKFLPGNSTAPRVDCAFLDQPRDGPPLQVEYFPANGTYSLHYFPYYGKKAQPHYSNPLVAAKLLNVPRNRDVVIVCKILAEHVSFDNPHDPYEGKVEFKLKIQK
T2 sequence (P19156 2-1034 limits assumed): as the sequence (P19156 2-1034 limits assumed) above
T2 sequence (P18434 whole entry partner): as the sequence (P18434 whole entry partner) above

| SMILES | IC50 [1] [µM] | other results |
| --- | --- | --- |
| Cc1[nH]c2ccnc(N3CCc4ccccc4C3)c2c1Cc1ccccc1 [Example 70, 3-benzyl-2-methyl-4-(1,2,3,4-tetrahydroisoquinolin-2-yl)-1H-pyrrolo[3,2-c]pyridine sodium] | 0.22 |  |
| COCCn1c(C)c(Cc2ccccc2)c2c(N3CCc4ccccc4C3)nccc21 [Example 63, 3-benzyl-1-(2-methoxyethyl)-2-methyl-4-(1,2,3,4-tetrahydroisoquinolin-2-yl)-1H-pyrrolo[3,2-c]pyridine hydrochloride] | < 4 |  |
| Cc1c(Cc2ccccc2)c2c(N3CCc4ccccc4C3)nccc2n1C.Cl [Example 56, 3-benzyl-1,2-dimethyl-4-(1,2,3,4-tetrahydroisoquinolin-2-yl)-1H-pyrrolo[3,2-c]pyridine hydrochloride] | 0.23 | ED50 [2]: 2.9 mg/kg |
| Cc1[nH]c2ccnc(NCc3ccc(F)cc3)c2c1Cc1ccccc1 [Example 71, 3-benzyl-2-methyl-4-(4-fluorobenzylamino)-1H-pyrrolo[3,2-c]pyridine hydrochloride] | 0.53 |  |
| Cc1c(Cc2ccccc2)c2c(N3CCc4ccccc4C3)nccc2n1CC1OCCO1 [Example 65, 3-benzyl-1-([1,3]dioxolan-2-ylmethyl)-2-methyl-4-(1,2,3,4-tetrahydroisoquinolin-2-yl)-1H-pyrrolo[3,2-c]pyridine hydrochloride] | 2.12 |  |
| Cc1[nH]c2ccnc(N3CCc4ccccc4C3)c2c1C [Example 1, 2,3-dimethyl-4-(1,2,3,4-tetrahydroisoquinolin-2-yl)-1H-pyrrolo[3,2-c]pyridine] | 0.47 |  |
| Cc1c(Cc2ccccc2)c2c(N3CCc4ccccc4C3)nccc2n1C1CC1 [Example 61, 3-benzyl-1-cyclopropyl-2-methyl-4-(1,2,3,4-tetrahydroisoquinolin-2-yl)-1H-pyrrolo[3,2-c]pyridine hydrochloride] | 0.28 |  |
| COCCn1c(C)c(C)c2c(N3CCc4ccccc4C3)nccc21 [Example 3, 2,3-dimethyl-1-(2-methoxyethyl)-4-(1,2,3,4-tetrahydroisoquinolin-2-yl)-1H-pyrrolo[3,2-c]pyridine hydrochloride] | 2.05 |  |
| CCn1c(C)c(C)c2c(N3CCc4ccccc4C3)nccc21 [Example 7, 1-ethyl-2,3-dimethyl-4-(1,2,3,4-tetrahydroisoquinolin-2-yl)-1H-pyrrolo[3,2-c]pyridine hydrochloride] | 1.03 |  |
| Cc1[nH]c2ccnc(N3CCc4ccccc4C3)c2c1Cc1ccccc1.Cl [Example 55, 3-benzyl-2-methyl-4-(1,2,3,4-tetrahydroisoquinolin-2-yl)-1H-pyrrolo[3,2-c]pyridine hydrochloride] | 0.09 | ED50 [2]: 1.6 mg/kg; inhibition of H+/K+-ATPase activity after washout (hog gastric H+/K+-ATPase; after washout, compared with non-treated group): did not inhibit; inhibition of H+/K+-ATPase activity before washout (hog gastric H+/K+-ATPase; before washout, compound at the concentration giving 50% inhibition): 50% |
| Cc1c(C)n(CCO)c2ccnc(N3CCc4ccccc4C3)c12 [Example 20, 2,3-dimethyl-1-(2-hydroxyethyl)-4-(1,2,3,4-tetrahydroisoquinolin-2-yl)-1H-pyrrolo[3,2-c]pyridine hydrochloride] | < 4 |  |
| Cc1c(C)n(C)c2ccnc(N3CCc4ccccc4C3)c12 [Example 6, 1,2,3-trimethyl-4-(1,2,3,4-tetrahydroisoquinolin-2-yl)-1H-pyrrolo[3,2-c]pyridine hydrochloride] | 0.43 |  |
| Cc1c(Cc2ccccc2)c2c(N3CCc4ccccc4C3)nccc2n1Cc1ccccc1 [Example 66, 1,3-dibenzyl-2-methyl-4-(1,2,3,4-tetrahydroisoquinolin-2-yl)-1H-pyrrolo[3,2-c]pyridine hydrochloride] | < 4 |  |
